In US20110118238A1, “2-ANILINOPURIN-8-ONES AS INHIBITORS OF TTK/MPS1 FOR THE TREATMENT OF PROLIFERATIVE DISORDERS” (ASTRAZENECA AB, priority 2007, published 2011):

Target: T1, N-terminal GST tagged full length human TTK kinase (Homo sapiens, UniProt P33981)
T1 construct: N-terminal GST tagged full length human TTK kinase; GST (N); made in house; host or cells: insect cells
T1 sequence (P33981 1-857): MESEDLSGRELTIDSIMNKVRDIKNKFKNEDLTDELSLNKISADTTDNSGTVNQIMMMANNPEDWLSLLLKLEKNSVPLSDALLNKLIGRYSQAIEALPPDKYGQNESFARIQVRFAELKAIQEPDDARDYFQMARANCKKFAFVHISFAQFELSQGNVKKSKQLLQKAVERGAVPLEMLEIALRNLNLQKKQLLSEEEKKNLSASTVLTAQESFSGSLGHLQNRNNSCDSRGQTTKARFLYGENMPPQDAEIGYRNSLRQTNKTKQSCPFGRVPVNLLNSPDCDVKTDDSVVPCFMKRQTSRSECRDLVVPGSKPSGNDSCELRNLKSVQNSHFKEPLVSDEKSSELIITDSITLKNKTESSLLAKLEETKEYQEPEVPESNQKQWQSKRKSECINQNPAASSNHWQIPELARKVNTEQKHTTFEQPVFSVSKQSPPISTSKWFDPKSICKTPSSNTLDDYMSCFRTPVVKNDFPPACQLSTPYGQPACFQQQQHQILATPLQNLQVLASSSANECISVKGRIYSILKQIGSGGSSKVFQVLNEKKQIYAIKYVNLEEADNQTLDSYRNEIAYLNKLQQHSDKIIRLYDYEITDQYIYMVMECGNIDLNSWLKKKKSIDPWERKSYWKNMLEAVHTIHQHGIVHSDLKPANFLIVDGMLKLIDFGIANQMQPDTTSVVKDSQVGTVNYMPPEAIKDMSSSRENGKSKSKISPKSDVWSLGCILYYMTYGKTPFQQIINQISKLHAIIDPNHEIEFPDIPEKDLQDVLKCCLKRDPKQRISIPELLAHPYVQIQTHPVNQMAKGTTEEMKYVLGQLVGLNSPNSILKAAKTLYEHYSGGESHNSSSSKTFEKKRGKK
Experiment: In Vitro TTK Kinase Assay 2 (Caliper LabChip LC3000)
Format: biochemical
Conditions: recombinant TTK, 12 μM ATP, read-out: EAA2: Enzyme Assay Activity (In Vitro TTK kinase assay 2)
Experimental: Each reaction was stopped by the addition of EDTA to a concentration of 40 mM in a solution which also comprised 0.1% coating reagent (Caliper LS), 100 mM HEPES pH 7.5, 0.015% v/v Brij™-35 and 5% DMSO. The stopped enzyme reactions were sipped through capillaries onto a Caliper chip where the peptide substrate and phosphorylated product were separated and detected via laser-induced fluorescence.

| IC50 [nM] | Compound |
| --- | --- |
| 2460 | CC(C)n1c(=O)n(C)c2cnc(Nc3ccc(C(=O)NC4CCN(C)CC4)c(F)c3)nc21 [Example 39, 2-Fluoro-4-[(9-isopropyl-7-methyl-8-oxo-8,9-dihydro-7H-purin-2-yl)-amino]-N-(1-methylpiperidin-4-yl)benzamide] |
| 338 | COc1cc(C(=O)NC2CCN(C)CC2)ccc1Nc1ncc2c(n1)n(C(C)C)c(=O)n2C [Example 40, 4-[(9-Isopropyl-7-methyl-8-oxo-8,9-dihydro-7H-purin-2-yl)amino]-3-methoxy-N-(1-methylpiperidin-4-yl)benzamide] |
| 7130 | CNC(=O)c1ccc(Nc2ncc3c(n2)n(C(C)C)c(=O)n3C)c(OC)c1 [Example 41, 4-[(9-Isopropyl-7-methyl-8-oxo-8,9-dihydro-7H-purin-2-yl)amino]-3-methoxy-N-methylbenzamide] |
| 68.8 | COc1cc(OC2CCN(C)CC2)ccc1Nc1ncc2c(n1)n(C(C)C)c(=O)n2C [Example 42, 9-Isopropyl-2-({2-methoxy-4-[(1-methylpiperidin-4-yl)oxy]phenyl}-amino)-7-methyl-7,9-dihydro-8H-purin-8-one] |
| 115 | COc1cc(OC2CCN(C)C2)ccc1Nc1ncc2c(n1)n(C(C)C)c(=O)n2C (stereo not shown) [Example 43, 9-Isopropyl-2-({2-methoxy-4-[(1-methylpyrrolidin-3-yl)oxy]-phenyl}amino)-7-methyl-7,9-dihydro-8H-purin-8-one] |
| 119 | COc1cc(N2CCN(C)CC2)ccc1Nc1ncc2c(n1)n(C(C)C)c(=O)n2C [Example 44, 9-Isopropyl-2-{[2-methoxy-4-(4-methylpiperazin-1-yl)phenyl]-amino}-7-methyl-7,9-dihydro-8H-purin-8-one] |
| 109 | CCN1CCN(c2ccc(Nc3ncc4c(n3)n(C(C)C)c(=O)n4C)c(OC)c2)CC1 [Example 45, 2-{[4-(4-Ethylpiperazin-1-yl)-2-methoxyphenyl]amino}-9-isopropyl-7-methyl-7,9-dihydro-8H-purin-8-one] |
| 144 | CCOc1cc(N2CCN(C)CC2)ccc1Nc1ncc2c(n1)n(C(C)C)c(=O)n2C [Example 46, 2-{[2-Ethoxy-4-(4-methylpiperazin-1-yl)phenyl]amino}-9-isopropyl-7-methyl-7,9-dihydro-8H-purin-8-one] |
| 136 | COc1cc(N2CCCN(C)CC2)ccc1Nc1ncc2c(n1)n(C(C)C)c(=O)n2C [Example 48, 9-Isopropyl-2-{[2-methoxy-4-(4-methyl-1,4-diazepan-1-yl)phenyl]-amino}-7-methyl-7,9-dihydro-8H-purin-8-one] |
| 72.4 | COc1cc(C(=O)O)ccc1Nc1ncc2c(n1)n(C1CCCC1)c(=O)n2C [Example 49, 4-[(9-Cyclopentyl-7-methyl-8-oxo-8,9-dihydro-7H-purin-2-yl)-amino]-3-methoxybenzoic acid] |
| 60.3 | COc1cc(C(=O)N2CCN(C)CC2)ccc1Nc1ncc2c(n1)n(C1CCCC1)c(=O)n2C [Example 50, 9-Cyclopentyl-2-({2-methoxy-4-[(4-methylpiperazin-1-yl)carbonyl]-phenyl}amino)-7-methyl-7,9-dihydro-8H-purin-8-one] |
| 148 | COc1cc(C(=O)N2CCN(C3CCN(C)CC3)CC2)ccc1Nc1ncc2c(n1)n(C1CCCC1)c(=O)n2C [Example 51, 9-Cyclopentyl-2-[(2-methoxy-4-{[4-(1-methylpiperidin-4-yl)-piperazin-1-yl]-carbonyl}phenyl)amino]-7-methyl-7,9-dihydro-8H-purin-8-one] |
| 41.2 | COc1cc(C(=O)NCCCn2ccnc2)ccc1Nc1ncc2c(n1)n(C1CCCC1)c(=O)n2C [Example 52, 4-[(9-Cyclopentyl-7-methyl-8-oxo-8,9-dihydro-7H-purin-2-yl)-amino]-N-[3-(1H-imidazol-1-yl)propyl]-3-methoxybenzamide] |
| 231 | COc1cc(C(=O)N(C)CC2CCN(C(C)C)C2)ccc1Nc1ncc2c(n1)n(C1CCCC1)c(=O)n2C (stereo not shown) [Example 53, 4-[(9-Cyclopentyl-7-methyl-8-oxo-8,9-dihydro-7H-purin-2-yl)-amino]-N-[(1-isopropylpyrrolidin-3-yl)methyl]-3-methoxy-N-methylbenzamide] |
| 36.2 | COc1cc(C(=O)N(C)CCCN(C)C)ccc1Nc1ncc2c(n1)n(C1CCCC1)c(=O)n2C [Example 54, 4-[(9-Cyclopentyl-7-methyl-8-oxo-8,9-dihydro-7H-purin-2-yl)-amino]-N-[3-(dimethylamino)propyl]-3-methoxy-N-methylbenzamide] |
| 17.5 | COc1cc(C(=O)N2CC[C@@H](N(C)C)C2)ccc1Nc1ncc2c(n1)n(C1CCCC1)c(=O)n2C [Example 55, 9-Cyclopentyl-2-[(4-{[(3R)-3-(dimethylamino)pyrrolidin-1-yl]-carbonyl}-2-methoxyphenyl)amino]-7-methyl-7,9-dihydro-8H-purin-8-one] |
| 67.6 | COc1cc(C(=O)N2CCC(N3CCCC3)CC2)ccc1Nc1ncc2c(n1)n(C1CCCC1)c(=O)n2C [Example 56, 9-Cyclopentyl-2-({2-methoxy-4-[(4-pyrrolidin-1-ylpiperidin-1-yl)-carbonyl]phenyl}amino)-7-methyl-7,9-dihydro-8H-purin-8-one] |
| 35.6 | COCCN1CCN(C(=O)c2ccc(Nc3ncc4c(n3)n(C3CCCC3)c(=O)n4C)c(OC)c2)CC1 [Example 57, 9-Cyclopentyl-2-[(2-methoxy-4-{[4-(2-methoxyethyl)piperazin-1-yl]-carbonyl}phenyl)amino]-7-methyl-7,9-dihydro-8H-purin-8-one] |
| 136 | COc1cc(C(=O)NC2CCC(N(C)C)CC2)ccc1Nc1ncc2c(n1)n(C1CCCC1)c(=O)n2C (stereo not shown) [Example 58] |
| 74.5 | COCCN1CCC(NC(=O)c2ccc(Nc3ncc4c(n3)n(C3CCCC3)c(=O)n4C)c(OC)c2)CC1 [Example 59, 4-[(9-Cyclopentyl-7-methyl-8-oxo-8,9-dihydro-7H-purin-2-yl)-amino]-3-methoxy-N-[1-(2-methoxyethyl)piperidin-4-yl]benzamide] |
| 114 | CCN1CCCC1CNC(=O)c1ccc(Nc2ncc3c(n2)n(C2CCCC2)c(=O)n3C)c(OC)c1 (stereo not shown) [Example 60, 4-[(9-Cyclopentyl-7-methyl-8-oxo-8,9-dihydro-7H-purin-2-yl)-amino]-N-[(1-ethylpyrrolidin-2-yl)methyl]-3-methoxybenzamide] |
| 53.6 | COc1cc(C(=O)NCCCCN(C)C)ccc1Nc1ncc2c(n1)n(C1CCCC1)c(=O)n2C [Example 61, 4-[(9-Cyclopentyl-7-methyl-8-oxo-8,9-dihydro-7H-purin-2-yl)-amino]-N-[4-(dimethylamino)butyl]-3-methoxybenzamide] |
| 50.9 | COc1cc(C(=O)NCCCN(C)C)ccc1Nc1ncc2c(n1)n(C1CCCC1)c(=O)n2C [Example 62, 4-[(9-Cyclopentyl-7-methyl-8-oxo-8,9-dihydro-7H-purin-2-yl)-amino]-N-[3-(dimethylamino)propyl]-3-methoxybenzamide] |
| 66.4 | COc1cc(C(=O)NCCN2CCCCC2)ccc1Nc1ncc2c(n1)n(C1CCCC1)c(=O)n2C [Example 63, 4-[(9-Cyclopentyl-7-methyl-8-oxo-8,9-dihydro-7H-purin-2-yl)-amino]-3-methoxy-N-(2-piperidin-1-ylethyl)benzamide] |
| 61.1 | COc1cc(C(=O)NCCN2CCN(C)CC2)ccc1Nc1ncc2c(n1)n(C1CCCC1)c(=O)n2C [Example 64, 4-[(9-Cyclopentyl-7-methyl-8-oxo-8,9-dihydro-7H-purin-2-yl)-amino]-3-methoxy-N-[2-(4-methylpiperazin-1-yl)ethyl]benzamide] |
| 27 | COc1cc(C(=O)N(C)C)ccc1Nc1ncc2c(n1)n(C1CCCC1)c(=O)n2C [Example 65, 4-[(9-Cyclopentyl-7-methyl-8-oxo-8,9-dihydro-7H-purin-2-yl)-amino]-3-methoxy-N,N-dimethylbenzamide] |
| 132 | COc1cc(C(=O)NCCCCN2CCCC2)ccc1Nc1ncc2c(n1)n(C1CCCC1)c(=O)n2C [Example 66, 4-[(9-Cyclopentyl-7-methyl-8-oxo-8,9-dihydro-7H-purin-2-yl)-amino]-3-methoxy-N-(4-pyrrolidin-1-ylbutyl)benzamide] |
| 119 | COc1cc(C(=O)NCCN(C)C)ccc1Nc1ncc2c(n1)n(C1CCCC1)c(=O)n2C [Example 67, 4-[(9-Cyclopentyl-7-methyl-8-oxo-8,9-dihydro-7H-purin-2-yl)-amino]-N-[2-(dimethylamino)ethyl]-3-methoxybenzamide] |
